Patent US10822448B2, “Dynamic urea bonds with fast hydrolytic kinetics for polymers” (THE BOARD OF TRUSTEES OF THE UNIVERSITY OF ILLINOIS, priority 2016, dated 2020)
Where two headings read alike, the source gives them in different places.

Columns and labels:
[1] = Equilibrium (binding) constant Keq of aryl hindered ureas by 1H NMR amine exchange in d-chloroform; format: physicochemical; details: room temperature
Method: (§1) We designed a set of aryl ureas with distinguished electronic effect on the conjugated phenyl ring (Table 1) and the corresponding Keq were studied by ^1H NMR through exchanging of the urea with a set of bulky amines in d-chloroform. The equilibrium constant of the aryl urea bond increases as the bulkiness of the substitution on the amine decreases. […] The dissociation constant k−1 was measured by exchange study of the ureas with another amine and calculated through linear regression. Remarkably, the amine exchange of the tBEU could reach equilibrium within 20 minutes at room temperature in d-chloroform. The k−1 of tBEU with aryl substitution is two orders of magnitudes larger than the reported aliphatic urea (Table 1) and among the fastest dynamic chemistries reported so far. […] The substituent on the aryl group can remotely affect the HUB through electronic effects, thus offering an extra tunability on the Keq and k−1 of the bond, which is unprecedented in hindered urea chemistry. The large value of Keq also makes it possible to prepare large molecular weight aromatic hindered urea materials with quantitative conversion.
We designed a set of aryl ureas with distinguished electronic effect on the conjugated phenyl ring (Table 1) and the corresponding Keq were studied by ^1H NMR through exchanging of the urea with a set of bulky amines in d-chloroform. The equilibrium constant of the aryl urea bond increases as the bulkiness of the substitution on amine increases. […] The dissociation constant k−1 was measured by exchanging of the ureas with another amine and calculated through linear regression. […] In addition, the calculated k1 is larger than 10^5 M^−1·h^−1 indicating the urea formation can be completed within seconds upon mixing. […] The large value of Keq make it possible to prepare chemically stable aromatic hindered urea materials with quantitative conversion.
The binding constant (Keq) was measured through indirect method used previously. […] Briefly, the of Keq of the equilibrium was measured in d-chloroform and the Keq of each aryl urea was calculated accordingly. […]

[2] = Dissociation constant k−1 of hindered ureas by amine exchange experiment (1H NMR, d-chloroform); format: physicochemical; details: room temperature
Method: as §1
The dissociation constant (k−1) of corresponding hinder ureas were determined through exchange experiment. Briefly, a d-chloroform (550 μL) solution of tBEU (0.050 mmol, ˜12 mg) was mixed with N-methyl-t-butyl-amine (1 eq). Then the mixture was monitored with ^1H NMR. The ratio of the two ureas was quantified by integration of the methyl/methylene hydrogen adjacent to the nitrogen atom. Linear regression of ln
[formula] ˜t giving the slope as the dissociation constant (k−1).
The method for tBEU was used except that 10 equivalent t-butylamine or n-butyl amine was used.
The dynamic behavior of the aromatic urea was then investigated by exchanging the tBEU with methyl-t-butylamine and the relative concentration of all species were monitored by ^1H NMR. […] In contrast, the aliphatic tBEU requires several days to reach equilibrium at 37° C. Through linear regression of the exchange component, the dissociate rate of the ureas were determined to be 5-12 h^−1 at room temperature, which is two order of magnitude higher than the aliphatic counterpart. […] SeeYing, H.; Zhang, Y.; Cheng, J. Nat. Commun. 2014, 5, 3218, which is incorporated by reference herein in its entirety.

[3] = HPLC analysis of Ph-tBEU hydrolysis kinetics in 1:1 DMSO-aqueous buffer at various pH; format: physicochemical
Method: FIGS. 1A to 1C depict the hydrolysis of phenyl-N-tetrabutyl-N-ethyl urea (Ph-tBEU) in 1:1 DMSO-aqueous buffer at various pH conditions at 37° C. as analyzed by HPLC. […] The dotted line marks the measured k−1 of the Ph-tBEU under the same condition through exchange with 10 equivalents of t-butyl amine.
The hydrolysis of aryl tBEU under different pH conditions was then studied in 1:1 DMSO-aqueous buffer solution at 23° C. […] Kinetic analysis of the hydrolytic kinetics confirmed that the overall urea degradation rate is determined by the urea dissociation and can be expressed as
HPLC Analysis of pH-tBEU Hydrolysis Kinetics in 50:50 DMSO-H2O at 37° C.
Ph-tBEU stock solution was prepared in DMSO as 2 mg/mL. The solution was diluted with 1:1 DMSO/buffer to 20 μg/mL ([…]) and incubated at 37° C. At specified time, the solution was analyzed by HPLC to quantify the remaining tBEU content by standard calibration curve (λabs=264 nm).
The standard sample of Ph-tBEU was prepared by diluting the stock solution with acetonitrile to a 2-fold serial dilution and analyzed instantly after preparation. The pH 1, 7, 10 buffers were prepared by adding acid/base to 1*PBS solution. pH 4 buffer was prepared by citric acid-Na2HPO4 (0.1 M). The pH of all the buffers were confirmed by pH meter prior to conducting the experiments.

[4] = cited from earlier work
[5] = aliphatic HUB, adapted from Ying et al. Nat. Commun. 2014; cited from earlier work

| Keq [1] | pH dependence of observed hydrolysis constant kobs ([3]; pH ranging from 3-11) | Compound | k1 (calculated as Keq × k−1) [2] | k−1 (dissociation rate) [2] | apparent hydrolysis constant kobs ([3]; 23° C. as printed) | time for exchange to reach equilibrium ([4]; aliphatic tBEU, 37° C.) | k−1 (dissociation rate) ([4]; reported aliphatic urea) | Keq [5] |
| --- | --- | --- | --- | --- | --- | --- | --- | --- |
| 81000 M⁻¹ | – | CCN(C(=O)Nc1ccc(OC)cc1)C(C)(C)C [compound 1] | 250 M⁻¹ s⁻¹ | 11.2 h⁻¹ | – | – | – | – |
| 360000 M⁻¹ | independent of pH | CCN(C(=O)Nc1ccccc1)C(C)(C)C [compound 2, phenyl-N-tetrabutyl-N-ethyl urea] | 889 M⁻¹ s⁻¹ | 8.9 h⁻¹ | 0.17 h⁻¹ | – | – | – |
| 6.8e+06 M⁻¹ | – | CCN(C(=O)Nc1ccc([N+](=O)[O-])cc1)C(C)(C)C [compound 3] | 10800 M⁻¹ s⁻¹ | 5.7 h⁻¹ | – | – | – | – |
| – | – | C=C(C)C(=O)OCCNC(=O)N(CC)C(C)(C)C [compound 4] | 9.17 M⁻¹ s⁻¹ | – | – | several days | 0.042 h⁻¹ | 790000 M⁻¹ |
